Laboratory results as given in patent publication US20090197970A1, “CRYSTALLINE FORM OF CINACALCET” (Sandoz AG, priority 2006, published 2009).

Tests used:
Format in all cases: physicochemical
[1] = Flowability and handling of the crystals; conditions: crystals in the form of plates
[2] = Storage stability of the crystalline form; conditions: stored at ambient temperature
[3] = Temperature range of stability of the polymorph (DSC discussion); conditions: form only stable above this temperature
Procedure: DSC curves were recorded with a DSC 7 system (Perkin Elmer, Norwalk, Conn., USA) using the Pyris 2.0. software. Samples of approximately 2 mg were weighted into A1 pans with perforated cover. Dry nitrogen was used as purge gas. X-axis is the temperature in ° C., Y-axis gives dH/dT (endo up).
Form I is a crystalline form which melts at about 180° C. and is only stable at temperatures above 130° C.

## C[C@@H](NCCCc1cccc(C(F)(F)F)c1)c1cccc2ccccc12.Cl
[1]
  flowability characteristics: favourable flowability characteristics

## C[C@@H](NCCCc1cccc(C(F)(F)F)c1)c1cccc2ccccc12.Cl [Form III of Cinacalcet hydrochloride]
[2]
  stable when stored: ≥ 3 months

## C[C@@H](NCCCc1cccc(C(F)(F)F)c1)c1cccc2ccccc12.Cl [Form I]
[3]
  temperature at which the form is stable: above 130 °C
